Columns and labels:
human recombinant HDAC1 = target: T1, human recombinant HDAC1 (Homo sapiens, UniProt Q13547); test: HDAC1 enzyme activity inhibition assay (HDAC Fluorimetric Drug Discovery Kit); format: biochemical; details: 30° C. 60 minutes
T1 construct: purchased Enzo Life Science BML-SE456
Protocol: In order to examine the HDAC6 selectivity of the compounds of formula I of the present invention by HDAC1 and HDAC6 enzymatic activity inhibition assays, an experiment was performed using a conventional substance as a control.
HDAC enzyme activity was measured using a HDAC Fluorimetric Drug Discovery Kit (BML-AK511, 516, Enzo Life Science). For the HDAC1 enzyme activity test, human recombinant HDAC1 (BML-SE456) was used as an enzyme source, and Fluor de Lys®-“SIRT1 (BNL-KI177) was used as a substrate. A 5-fold dilution of the compound was seeded into a 96-well plate, and then 0.3 μg of the enzyme and 10 μM of the substrate were added to each well of the plate and allowed to react at 30° C. for 60 minutes. Then, Fluor de Lys®-Developer II (BML-KI176) was added thereto and allowed to react for 30 minutes, after which the fluorescence value (Ex 360, Em 460) was measured using a multi-plate reader (Flexstation 3, Molecular Device). The HDAC6 enzyme was tested using human recombinant HDAC6 (382180) (Calbiochem) according to the same protocol as the HDAC1 enzyme activity test method. Based on the resulting values, each IC5, value was calculated using GraphPad Prism4.0 program.

human recombinant HDAC6 = target: T2, human recombinant HDAC6 (Homo sapiens, UniProt Q9UBN7); test: HDAC6 enzyme activity inhibition assay (HDAC Fluorimetric Drug Discovery Kit); format: biochemical; details: for HDAC6 selectivity (fold): HDAC6 over HDAC1; for IC50: human recombinant HDAC6, same protocol as HDAC1, read-out: HDAC6
T2 construct: purchased Calbiochem 382180
T2 sequence (Q9UBN7 1-1215): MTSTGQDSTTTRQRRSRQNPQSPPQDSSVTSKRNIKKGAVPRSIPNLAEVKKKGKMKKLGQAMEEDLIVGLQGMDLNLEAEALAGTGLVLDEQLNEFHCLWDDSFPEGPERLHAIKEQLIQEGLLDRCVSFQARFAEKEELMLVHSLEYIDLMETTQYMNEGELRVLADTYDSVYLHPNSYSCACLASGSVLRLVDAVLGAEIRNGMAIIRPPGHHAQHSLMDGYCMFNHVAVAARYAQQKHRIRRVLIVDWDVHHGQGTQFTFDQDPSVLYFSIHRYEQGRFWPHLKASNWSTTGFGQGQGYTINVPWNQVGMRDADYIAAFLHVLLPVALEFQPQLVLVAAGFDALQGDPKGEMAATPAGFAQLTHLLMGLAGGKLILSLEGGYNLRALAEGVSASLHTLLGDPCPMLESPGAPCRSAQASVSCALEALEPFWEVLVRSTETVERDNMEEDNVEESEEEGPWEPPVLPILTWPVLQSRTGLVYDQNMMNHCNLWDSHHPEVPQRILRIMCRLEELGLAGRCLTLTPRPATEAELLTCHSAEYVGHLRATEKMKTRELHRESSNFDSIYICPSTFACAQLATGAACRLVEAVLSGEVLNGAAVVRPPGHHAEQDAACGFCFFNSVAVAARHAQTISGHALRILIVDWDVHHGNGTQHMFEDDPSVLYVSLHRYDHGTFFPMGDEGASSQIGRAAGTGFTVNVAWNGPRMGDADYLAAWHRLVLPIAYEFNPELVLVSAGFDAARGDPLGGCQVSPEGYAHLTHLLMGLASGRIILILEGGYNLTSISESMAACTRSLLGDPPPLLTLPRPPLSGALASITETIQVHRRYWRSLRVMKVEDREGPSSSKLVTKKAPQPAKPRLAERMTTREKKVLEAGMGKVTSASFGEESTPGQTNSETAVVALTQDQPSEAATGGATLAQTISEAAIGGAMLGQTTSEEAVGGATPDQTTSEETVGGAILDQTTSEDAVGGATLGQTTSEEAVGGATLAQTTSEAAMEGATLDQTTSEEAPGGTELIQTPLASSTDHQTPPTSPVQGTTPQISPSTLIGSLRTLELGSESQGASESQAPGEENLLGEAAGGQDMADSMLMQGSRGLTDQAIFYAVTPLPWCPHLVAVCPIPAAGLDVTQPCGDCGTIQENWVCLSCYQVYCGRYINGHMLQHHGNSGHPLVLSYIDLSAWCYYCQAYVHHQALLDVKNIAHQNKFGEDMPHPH
Summary of the method: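 Human recombinant HDAC1 or HDAC6 (0.3 μg) reacted with 10 μM Fluor de Lys-SIRT1 substrate and 5-fold compound dilutions for 60 min at 30 °C. Developer II added for 30 min, fluorescence read at Ex 360/Em 460; IC50 calculated from the readings.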

[1] = human recombinant HDAC1, Fluor de Lys substrate 10 μM
[2] = human recombinant HDAC1, Fluor de Lys substrate

T1 sequence (Q13547 whole entry): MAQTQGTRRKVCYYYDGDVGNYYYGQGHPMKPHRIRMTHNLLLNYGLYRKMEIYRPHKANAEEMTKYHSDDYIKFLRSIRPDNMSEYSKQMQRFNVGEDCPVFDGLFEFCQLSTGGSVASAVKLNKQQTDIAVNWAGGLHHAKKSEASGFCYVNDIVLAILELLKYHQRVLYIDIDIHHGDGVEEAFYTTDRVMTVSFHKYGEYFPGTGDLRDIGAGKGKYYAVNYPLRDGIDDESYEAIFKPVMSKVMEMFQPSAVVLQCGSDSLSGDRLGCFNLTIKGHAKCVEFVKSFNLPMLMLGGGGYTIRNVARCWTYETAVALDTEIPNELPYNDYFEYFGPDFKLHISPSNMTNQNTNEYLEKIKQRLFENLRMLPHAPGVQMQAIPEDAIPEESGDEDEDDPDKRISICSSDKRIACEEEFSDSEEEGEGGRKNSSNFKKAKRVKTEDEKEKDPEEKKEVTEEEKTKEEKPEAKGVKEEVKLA

SMILES | IC50 (human recombinant HDAC1; [1]) [nM] | HDAC6 selectivity (fold) (human recombinant HDAC6) | IC50 (human recombinant HDAC6) [nM] | IC50 (human recombinant HDAC1; [2]) [nM]
CCN1CCN(C(=O)N(Cc2ccc(-c3nnc(C(F)(F)F)o3)cn2)c2cccc(OC)c2)CC1 [Compound 21873, 4-Ethyl-N-(3-methoxyphenyl)-N-((5-(5-(trifluoromethyl)-1,3,4-oxadiazol-2-yl)pyridin-2-yl)methyl)piperazine-1-carboxamide] | 14900 | 55 | 269 | –
CCN1CCN(C(=O)N(Cc2ccc(-c3nnc(C(F)(F)F)o3)cc2F)c2cccc(F)c2)CC1 [Compound 21866, 4-Ethyl-N-(2-fluoro-4-(5-(trifluoromethyl)-1,3,4-oxadiazol-2-yl)benzyl)-N-(3-fluorophenyl)piperazine-1-carboxamide] | 23900 | 174 | 137 | –
O=C(N1CCOCC1)N(Cc1ccc(-c2nnc(C(F)(F)F)o2)cn1)c1ccc(F)cc1F [Compound 21857, N-(2,4-difluorophenyl)-N-((5-(5-(trifluoromethyl)-1,3,4-oxadiazol-2-yl)pyridin-2-yl)methyl)morpholine-4-carboxamide] | 23900 | 182 | 131 | –
O=C(N1CCS(=O)(=O)CC1)N(Cc1ccc(-c2nnc(C(F)(F)F)o2)cc1)c1ccc(F)cc1 [Compound 21389, N-(4-Fluorophenyl)-N-(4-(5-(trifluoromethyl)-1,3,4-oxadiazol-2-yl)benzyl)thiomorpholine-4-carboxamide 1,1-dioxide] | 6360 | 68 | 93 | –
O=C(N1CCN(CCO)CC1)N(Cc1ccc(-c2nnc(C(F)F)o2)cc1F)c1ccc(F)c(Cl)c1 [Compound 21679, N-(3-chloro-4-fluorophenyl)-N-(4-(5-(difluoromethyl)-1,3,4-oxadiazol-2-yl)-2-fluorobenzyl)-4-(2-hydroxyethyl)piperazine-1-carboxamide] | 23200 | 675 | 34 | –
Cn1ncc2ccc(N(Cc3ccc(-c4nnc(C(F)(F)F)o4)cc3F)C(=O)N3CCS(=O)(=O)CC3)cc21 [Compound 21545, N-(2-fluoro-4-(5-(trifluoromethyl)-1,3,4-oxadiazol-2-yl)benzyl)-N-(1-methyl-1H-indazol-6-yl)thiomorpholine-4-carboxamide 1,1-dioxide] | 4440 | 85 | 52 | –
CCN1CCN(C(=O)N(Cc2ccc(-c3nnc(C(F)F)o3)cc2F)c2ccc(F)cc2Cl)CC1 [Compound 21650, N-(2-chloro-4-fluorophenyl)-N-(4-(5-(difluoromethyl)-1,3,4-oxadiazol-2-yl)-2-fluorobenzyl)-4-ethylpiperazine-1-carboxamide] | 36100 | 468 | 77 | –
COc1ccc(N(Cc2ccc(-c3nnc(C(F)(F)F)o3)cc2)C(=O)N2CCS(=O)(=O)CC2)cc1 [Compound 21390, N-(4-methoxyphenyl)-N-(4-(5-(trifluoromethyl)-1,3,4-oxadiazol-2-yl)benzyl)thiomorpholine-4-carboxamide 1,1-dioxide] | 5280 | 17 | 317 | –
O=C(N1CCS(=O)(=O)CC1)N(Cc1ccc(-c2nnc(C(F)(F)F)o2)cc1)c1cccc(Br)c1 [Compound 21393, N-(3-bromophenyl)-N-(4-(5-(trifluoromethyl)-1,3,4-oxadiazol-2-yl)benzyl)thiomorpholine-4-carboxamide 1,1-dioxide] | 8960 | 65 | 137 | –
O=C(N1CCOCC1)N(Cc1ccc(-c2nnc(C(F)(F)F)o2)cc1F)c1ccc(F)c(Cl)c1 [Compound 21930, N-(3-chloro-4-fluorophenyl)-N-(2-fluoro-4-(5-(trifluoromethyl)-1,3,4-oxadiazol-2-yl)benzyl)morpholine-4-carboxamide] | – | 35 | 419 | 14600
CCN1CCN(C(=O)N(Cc2ccc(-c3nnc(C(F)F)o3)cc2F)c2ccc(F)c(Br)c2)CC1 [Compound 21656, N-(3-bromo-4-fluorophenyl)-N-(4-(5-(difluoromethyl)-1,3,4-oxadiazol-2-yl)-2-fluorobenzyl)-4-ethylpiperazine-1-carboxamide] | 36500 | 1122 | 33 | –

Further compounds by falling IC50 (human recombinant HDAC6), results first:

IC50 (human recombinant HDAC1; [1]) [nM] | HDAC6 selectivity (fold) (human recombinant HDAC6) | IC50 (human recombinant HDAC6) [nM] | IC50 (human recombinant HDAC1; [2]) [nM] | SMILES
10400 | 41 | 253 | – | O=C(N1CCC(F)(F)C1)N(Cc1ccc(-c2nnc(C(F)(F)F)o2)cc1F)c1ccc(F)c(Cl)c1 [Compound 21668, N-(3-chloro-4-fluorophenyl)-3,3-difluoro-N-(2-fluoro-4-(5-(trifluoromethyl)-1,3,4-oxadiazol-2-yl)benzyl)pyrrolidine-1-carboxamide]
– | 188 | 246 | 46300 | COc1cccc(N(Cc2ccc(-c3nnc(C(F)F)o3)cc2)C(=O)N2CCN(C3COC3)CC2)c1 [Compound 21948, N-(4-(5-(Difluoromethyl)-1,3,4-oxadiazol-2-yl)benzyl)-N-(3-methoxyphenyl)-4-(oxetan-3-yl)piperazine-1-carboxamide]
21300 | 173 | 123 | – | O=C(N1CCOCC1)N(Cc1ccc(-c2nnc(C(F)(F)F)o2)cc1F)c1cccc(F)c1 [Compound 21846, N-(2-fluoro-4-(5-(trifluoromethyl)-1,3,4-oxadiazol-2-yl)benzyl)-N-(3-fluorophenyl)morpholine-4-carboxamide]
48700 | 548 | 89 | – | CCN1CCN(C(=O)N(Cc2ccc(-c3nnc(C(F)F)o3)cc2)c2ccc(OC)cc2)CC1 [Compound 21892, N-(4-(5-(Difluoromethyl)-1,3,4-oxadiazol-2-yl)benzyl)-4-ethyl-N-(4-methoxyphenyl)piperazine-1-carboxamide]
32300 | 404 | 80 | – | O=C(N1CCOCC1)N(Cc1ccc(-c2nnc(C(F)(F)F)o2)cn1)c1cccc(F)c1 [Compound 21844, N-(3-fluorophenyl)-N-((5-(5-(trifluoromethyl)-1,3,4-oxadiazol-2-yl)pyridin-2-yl)methyl) morpholine-4-carboxamide]
28800 | 540 | 53 | – | O=C(N1CCOCC1)N(Cc1ccc(-c2nnc(C(F)F)o2)cc1F)c1cccc(Cl)c1 [Compound 21853, N-(3-chlorophenyl)-N-(4-(5-(difluoromethyl)-1,3,4-oxadiazol-2-yl)-2-fluorobenzyl)morpholine-4-carboxamide]
18800 | 1518 | 12 | – | CN1CCN(C(=O)N(Cc2ccc(-c3nnc(C(F)F)o3)cc2F)c2ccc3cnn(C)c3c2)CC1 [Compound 21654, N-(4-(5-(difluoromethyl)-1,3,4-oxadiazol-2-yl)-2-fluorobenzyl)-4-methyl-N-(1-methyl-1H-indazol-6-yl)piperazine-1-carboxamide]
